Data: patent publication US7592363B2, “Indazoles” (Wyeth, priority 2004, dated 2009)

Compound | melting point [°C]
CC1CCCN(c2ccc(-c3c4cccc(C(F)(F)F)c4nn3Cc3c(F)cc(F)cc3F)cc2)C1 (stereo not drawn) | 103
COC(=O)C[C@H]1CCCN(c2ccc(-c3c4cccc(C(F)(F)F)c4nn3Cc3c(F)cc(F)cc3F)cc2)C1 | 103
COC(=O)C[C@@H]1CCCN(c2ccc(-c3c4cccc(C(F)(F)F)c4nn3Cc3c(F)cc(F)cc3F)cc2)C1 | 103
COc1ccc(-c2c3cccc(C(F)(F)F)c3nn2CC(C)C)c(OC)c1 [Example 106, 3-(2,4-DIMETHOXYPHENYL)-2-ISOBUTYL-7-(TRIFLUOROMETHYL)-2H-INDAZOLE] | 111 to 112
COc1ccc(-c2c3cccc(C(F)(F)F)c3nn2CC2CCCCC2)c(OC)c1 [Example 107, 2-(CYCLOHEXYLMETHYL)-3-(2,4-DIMETHOXYPHENYL)-7-(TRIFLUOROMETHYL)-2H-INDAZOLE] | 156 to 157
COc1ccc(-c2c3cccc(C(F)(F)F)c3nn2C2CCC2)c(OC)c1 [Example 109, 2-CYCLOBUTYL-3-(2,4-DIMETHOXYPHENYL)-7-(TRIFLUOROMETHYL)-2H-INDAZOLE] | 51 to 52
CCC(CC)n1nc2c(C(F)(F)F)cccc2c1-c1ccc(OC)cc1OC [Example 110, 3-(2,4-DIMETHOXYPHENYL)-2-(1-ETHYLPROPYL)-7-(TRIFLUOROMETHYL)-2H-INDAZOLE] | 138 to 139
Fc1ccc(-c2c3cccc(C(F)(F)F)c3nn2Cc2c(F)cc(F)cc2F)cc1 [Example 139, 3-(4-FLUOROPHENYL)-2-(2,4,6-TRIFLUOROBENZYL)-7-(TRIFLUOROMETHYL)-2H-INDAZOLE] | 125
Fc1ccc(-c2c3cccc(N4CCCC4)c3nn2Cc2ccc(F)cc2F)cc1 [Example 426, 2-(2,4-DIFLUOROBENZYL)-3-(4-FLUOROPHENYL)-7-PYRROLIDIN-1-YL-2H-INDAZOLE] | 112 to 114
